{"source": "patent US8304442B2", "about": "“Compounds having immunomodulator activity” (Ganial Immunotherapeutics, Inc., priority 2005, dated 2012)", "key": {"[1]": {"tested_on": "IL-10", "details": "J. Exp Med.; cited from earlier work"}, "[2]": {"tested_on": "oxazolone-induced hypersensitivity", "test": "Oxazolone-induced dermatitis", "format": "in vivo, mice"}, "[3]": {"tested_on": "splenic mononuclear cells (SMNC)", "test": "In vitro proliferation and cytokine synthesis by ConA-stimulated splenic mononuclear cells", "format": "cell-based, mice", "method": "(§1) Peritoneal macrophages (PM) and splenic mononuclear cells (SMNC) were isolated from normal mice, were cultured in nutrient medium and stimulated with LPS and/or ConA, respectively in the absence or presence of GIT27. […] GIT27 had no effect on MIF expression in either cell type, on proliferation of SMNC, and on IL-10 and Interferon (IFN) gamma production by SMNC."}, "[4]": {"tested_on": "DNB-induced colitis", "test": "DNB-induced colitis", "format": "in vivo, mice", "method": "Within 5 days after challenge with dinitrobenzene sulfonic acid (DNB), mice develop colitis. The disease severity is evaluated based on a macroscopic score. The vehicle-treated control mice and untreated mice developed colitis with a predictable and progressive increase in inflammation and body weight loss. […] The colons of the control mice and of the GIT27 treated mice were removed, sectioned, fixed, and stained with hematoxylin and eosin. […] The tissue myeloperoxidase activity is a well established marker to assess the inflammatory cell (mainly neutrophils) infiltration. […] We counted an average of 8,9±1.2 (means±SD) cells/high power field in the of DNB-induced animals, whereas there were only 3.37±0.8 cells/high-power field in DNB-induced animals pretreated with GIT27 (p<0.0001)."}, "[5]": {"tested_on": "CAR-induced pleurisy", "test": "Carrageenan (CAR) induced pleurisy", "format": "in vivo, mice", "details": "prophylactic treatment", "excerpt": "GIT27 powerfully suppresses CAR-induced pleurisy in mice All the mice that were challenged with CAR and left untreated or treated with the vehicle of GIT27 developed an acute pleurisy, with production of turbid exudate, PMNs infiltration, and myeloperoxidase (MPO) activity accumulation in the lung."}, "[6]": {"tested_on": "LPS-induced lethality", "test": "LPS-induced lethality in vivo", "design": "species or system mice", "details": "for protection from LPS-induced lethality: therapeutic", "method": "As expected, most of the control mice either untreated or that received the vehicle of GIT27 succumbed to LPS-challenge within 3 days. […] In contrast, the treatment with GIT27 given either po or ip protect the mice from the lethal effects of LPS in a dose-dependent fashion. When given p.o., GIT27 was effective at the dose of 2.5 mg/mouse and dosed out both at 1.5 and 3 mg/mouse."}, "[7]": {"tested_on": "MLD-STZ induced diabetes", "test": "Diabetes induced by multiple low doses of streptozotocin", "format": "in vivo, CBA/H mice", "details": "prophylactic", "excerpt": "Both i.p and p.o. treatment with GIT27 suppressed clinical development of diabetes that is induced in CBA/H mice by multiple low doses of streptozotocin. CBA/H mice developed sustained hyperglycaemia over a 2-week period following MLD-STZ injections. As expected, CBA/H control mice treated with the vehicle of GIT27 either i.p. or p.o. develop diabetes with sustained hyperglycaemia developed over a 2-week period following MLD-STZ injections."}, "[8]": {"tested_on": "NF-kB", "test": "LPS-induced NF-kB DNA binding in monocyte-derived human macrophages", "format": "cell-based"}, "[9]": {"tested_on": "Peritoneal macrophages (PM)", "test": "In vitro cytokine synthesis by LPS-stimulated peritoneal macrophages", "format": "cell-based, mice", "method": "as §1"}, "[10]": {"tested_on": "Peritoneal macrophages (PM)", "test": "Ex vivo cytokine synthesis of PM isolated from GIT27 treated mice", "format": "in vivo", "details": "mice treated 7 days i.p. 0.5 mg/mouse or p.o. 2.5 mg/mouse", "method": "(§2) These experiments were carried out to explore if intraperitoneal (i.p.) or per os (p.o.) treatment of mice with GIT27 could influence the proliferative response of SMNC and the production of IL-1β, IL-10, TNF-α, IFN-γ and MIF from isolated PM and SMNC. PM and SMNC isolated from mice treated in vivo with GIT27 for 7 consecutive days i.p. (0.5 mg/mouse), or p.o. (2.5 mg/mouse), or isolated from control animals that received GIT27 vehicle (Na2HPO4/H2O), or were without any treatment. 24 h after the last GIT27 treatment, PM and SMNC were collected for further in vitro stimulation and analysis."}, "[11]": {"tested_on": "type II CIA", "test": "Type II collagen-induced arthritis (CIA)", "format": "in vivo, mice", "details": "therapeutic", "method": "To evaluate the therapeutic effect of GIT27 in arthritis, mice developing type II CIA were treated for 10 consecutive days. […] Control mice were treated under the same experimental regime with the vehicle of GIT27.\nThe vehicle-treated control mice rapidly develop full clinical signs of type II CIA with a progressive increment of the arthritic clinical scores and severe hind paws oedema. This clinical picture was reflected by severe inflammatory arthritis as indicated by the high the progressive increment of the arthritic histological scores determinated by histological evaluation."}, "[12]": {"tested_on": "splenic mononuclear cells (SMNC)", "test": "Ex vivo proliferation and cytokine synthesis of SMNC isolated from GIT27 treated mice", "format": "in vivo", "details": "mice treated 7 days i.p. 0.5 mg/mouse or p.o. 2.5 mg/mouse", "method": "as §2"}, "[13]": {"details": "treated during or before the sensitization phase"}, "[14]": {"details": "10 consecutive days from clinical score ≧1, vs vehicle"}}}
{"molecule": "Cyclosporin A", "values": [{"measurement": "IL-10 synthesis in vitro", "setting": "[1]", "result": "down-regulates"}]}
{"molecule": "O=C(O)CC1CC(c2ccccc2)=NO1", "note": "(centres unmarked) [GIT27, 3-phenyl-4,5-dihydro-5-isoxazoleacetic acid]", "values": [{"measurement": "ear thickness", "setting": "[2]; elicitation phase: treated one hour after second exposure to oxazolone", "result": "significant decrease"}, {"measurement": "increment of ear thickness", "setting": "[2]; [13]", "result": "significantly suppressed"}, {"measurement": "increment of ear weight", "setting": "[2]; [13]", "result": "significantly suppressed"}, {"measurement": "MIF expression in SMNC", "setting": "[3]", "result": "no effect"}, {"measurement": "IL-10 production by SMNC", "setting": "[3]; ConA stimulated", "result": "no effect"}, {"measurement": "Interferon (IFN) gamma production by SMNC", "setting": "[3]; ConA stimulated", "result": "no effect"}, {"measurement": "production of TNF α by SMNC", "setting": "[3]; ConA stimulated", "result": "markedly inhibited"}, {"measurement": "proliferation of SMNC", "setting": "[3]; ConA stimulated", "result": "no effect"}, {"measurement": "inflammatory cell infiltration (colon myeloperoxidase activity)", "setting": "[4]; 5 days after induction of colitis, p<0.0001", "result": "significant reduction"}, {"measurement": "infiltrating neutrophils in histology samples", "setting": "[4]; means±SD, DNB-induced animals pretreated, p<0.0001", "result": "3.37±0.8", "unit": "cells/high-power field"}, {"measurement": "tissue damage (colon histology)", "setting": "[4]; treated before DNB-induced colitis, vs control mice", "result": "significantly reduced"}, {"measurement": "weight loss", "setting": "[4]; vs control groups", "result": "significant reduction"}, {"measurement": "increase in colon weight", "setting": "[4]; vs controls", "result": "significantly lower"}, {"measurement": "progression of inflammatory colitis (macroscopic score)", "setting": "[4]; vs controls, p<0.001", "result": "significantly attenuated"}, {"measurement": "PMNs infiltration", "setting": "[5]", "result": "reduced"}, {"measurement": "myeloperoxidase (MPO) activity accumulation in the lung", "setting": "[5]", "result": "reduced"}, {"measurement": "production of exudate", "setting": "[5]", "result": "reduced"}, {"measurement": "overall effect on CAR-induced pleurisy", "setting": "[5]; comparable to antibody against mouse TNF-alpha", "result": "powerful protective effect"}, {"measurement": "protection from LPS-induced lethality", "setting": "[6]; i.p., between 0.25 and 0.5 mg/mouse", "result": "dose-dependent protection"}, {"measurement": "LPS-induced lethality", "setting": "[6]; p.o. and i.p., prophylactic regime (-24 and -1 hour prior to LPS)", "result": "significantly reducing"}, {"measurement": "protection from LPS-induced lethality", "setting": "[6]; p.o., 2.5 mg/mouse", "result": "effective"}, {"measurement": "protection from LPS-induced lethality", "setting": "[6]; p.o., 1.5 and 3 mg/mouse", "result": "dosed out"}, {"measurement": "LPS-induced lethality", "setting": "[6]; therapeutic administration, overall", "result": "powerfully counteracts"}, {"measurement": "diabetogenic effect of MLD-STZ (hyperglycaemia)", "setting": "[7]; i.p.", "result": "significantly reduced"}, {"measurement": "development of hyperglycaemia", "setting": "[7]; p.o.", "result": "significantly reducing"}, {"measurement": "DNA binding of NF-kB induced by LPS", "setting": "[8]", "result": "powerfully inhibits in a dose-dependent fashion"}, {"measurement": "MIF expression in PM", "setting": "[9]", "result": "no effect"}, {"measurement": "production of IL-1β by PM", "setting": "[9]; LPS stimulated", "result": "inhibited"}, {"measurement": "production of IL-10 by PM", "setting": "[9]; LPS stimulated", "result": "inhibited"}, {"measurement": "production of TNF α by PM", "setting": "[9]; LPS stimulated", "result": "markedly inhibited"}, {"measurement": "MIF expression by PM upon mitogenic stimulation", "setting": "[10]", "result": "normal pattern"}, {"measurement": "synthesis of IL-1β by PM", "setting": "[10]", "result": "impaired synthesis"}, {"measurement": "synthesis of IL-10 by PM", "setting": "[10]", "result": "impaired synthesis"}, {"measurement": "synthesis of TNF α by PM", "setting": "[10]", "result": "impaired synthesis"}, {"measurement": "clinical arthritic scores", "setting": "[11]; [14]", "result": "lower"}, {"measurement": "histological arthritic scores", "setting": "[11]; [14]", "result": "lower"}, {"measurement": "progression of the arthritic disease", "setting": "[11]; 10 consecutive days, potency comparable to dexamethasone", "result": "significantly slower progression"}, {"measurement": "IFN-γ production by SMNC upon stimulation", "setting": "[12]", "result": "normal capacity to produce"}, {"measurement": "IL-1β production by SMNC upon stimulation", "setting": "[12]", "result": "normal capacity to produce"}, {"measurement": "IL-10 production by SMNC upon stimulation", "setting": "[12]", "result": "normal capacity to produce"}, {"measurement": "MIF expression by SMNC", "setting": "[12]", "result": "normal expression pattern"}, {"measurement": "TNF-α production by SMNC upon stimulation", "setting": "[12]", "result": "normal capacity to produce"}, {"measurement": "proliferation of SMNC", "setting": "[12]", "result": "normal capacity to proliferate"}]}
